Our source for the IC50 values is patent publication US11180484B2, “Pyrazole derivatives as plasma kallikrein inhibitors” (KALVISTA PHARMACEUTICALS LIMITED, priority 2016, dated 2021).

Structures are written as SMILES. pIC50: −log10 of the molar value.

Common to all, as to type: biochemical
For one test, the target named is Human KLK1 (Homo sapiens (Human), UniProt P06870). As to the kind of experiment: Determination of the IC50 for KLK1. The settings on record: 25° C., substrate H-DVal-Leu-Arg-AFC. How it is done: Human KLK1 (Callbiochem) was incubated at 25° C. with the fluorogenic substrate H-DVal-Leu-Arg-AFC and various concentrations of the test compound. Residual enzyme activity (initial rate of reaction) was determined by measuring the change in […] at 410 nm and the IC50 value for the test compound was determined.
Chain of Human KLK1 (P06870 25-262): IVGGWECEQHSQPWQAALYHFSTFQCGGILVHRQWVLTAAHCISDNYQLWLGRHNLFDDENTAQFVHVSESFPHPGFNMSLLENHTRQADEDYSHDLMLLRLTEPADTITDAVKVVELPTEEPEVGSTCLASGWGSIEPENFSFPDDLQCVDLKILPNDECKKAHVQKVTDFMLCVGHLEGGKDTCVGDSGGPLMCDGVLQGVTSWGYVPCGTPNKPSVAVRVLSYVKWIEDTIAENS

The target of a further test is Human FXIa (Homo sapiens (Human), UniProt P03951). As to the kind of experiment: Determination of the % inhibition / IC50 for FXIa. As to conditions: 25° C., substrate Z-Gly-Pro-Arg-AFC. On the procedure:
FXIa inhibitory activity in vitro was determined using standard published methods (see e.g. Johansen et al., Int. J. Tiss. Reac. 1986, 8, 185; Shori et al., Biochem. Pharmacol., 1992, 43, 1209; Sturzebecher et al., Biol. Chem. Hoppe-Seyler, 1992, 373, 1025). […]

Another test addresses Human Factor XIIa (Homo sapiens (Human), UniProt P00748). As to the kind of experiment: Factor XIIa inhibitory activity in vitro. As to conditions: 25° C., substrate H-DPro-Phe-Arg-AFC; read-out: IC50 (human FXIIa). On the procedure: Human Factor XIIa (Enzyme Research Laboratories) was incubated at 25° C. with the fluorogenic substrate H-DPro-Phe-Arg-AFC and various concentrations of the test compound. Residual enzyme activity (initial rate of reaction) was determined by measuring the change in […] at 410 nm and the IC50 value for the test compound was determined.

The next test addresses Human plasma kallikrein (Homo sapiens (Human), UniProt P03952). As to the kind of experiment: Determination of the IC50 for plasma kallikrein. As to conditions: 25° C., substrate H-DPro-Phe-Arg-AFC; read-out: IC50 (human PKal). On the procedure:
Human plasma kallikrein (Protogen) was incubated at 25° C. with the fluorogenic substrate H-DPro-Phe-Arg-AFC and various concentrations of the test compound. Residual enzyme activity (initial rate of reaction) was determined by measuring the change in […] at 410 nm and the IC50 value for the test compound was determined.

Chain of Human Factor XIIa (P00748 373-615): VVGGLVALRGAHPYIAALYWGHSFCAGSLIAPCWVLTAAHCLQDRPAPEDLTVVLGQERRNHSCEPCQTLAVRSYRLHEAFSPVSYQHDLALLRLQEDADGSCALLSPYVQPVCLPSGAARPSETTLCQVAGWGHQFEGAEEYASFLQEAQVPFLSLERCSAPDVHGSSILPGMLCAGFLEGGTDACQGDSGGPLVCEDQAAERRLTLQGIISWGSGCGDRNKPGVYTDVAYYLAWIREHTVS
Chain of Human FXIa (P03951 388-625): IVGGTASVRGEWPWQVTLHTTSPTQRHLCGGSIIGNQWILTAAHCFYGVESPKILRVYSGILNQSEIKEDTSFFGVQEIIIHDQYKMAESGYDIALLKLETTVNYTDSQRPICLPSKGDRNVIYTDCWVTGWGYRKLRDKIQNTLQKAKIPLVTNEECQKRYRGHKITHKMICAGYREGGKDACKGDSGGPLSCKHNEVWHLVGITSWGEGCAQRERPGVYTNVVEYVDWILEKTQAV
Chain of Human FXIa (P03951 19-387): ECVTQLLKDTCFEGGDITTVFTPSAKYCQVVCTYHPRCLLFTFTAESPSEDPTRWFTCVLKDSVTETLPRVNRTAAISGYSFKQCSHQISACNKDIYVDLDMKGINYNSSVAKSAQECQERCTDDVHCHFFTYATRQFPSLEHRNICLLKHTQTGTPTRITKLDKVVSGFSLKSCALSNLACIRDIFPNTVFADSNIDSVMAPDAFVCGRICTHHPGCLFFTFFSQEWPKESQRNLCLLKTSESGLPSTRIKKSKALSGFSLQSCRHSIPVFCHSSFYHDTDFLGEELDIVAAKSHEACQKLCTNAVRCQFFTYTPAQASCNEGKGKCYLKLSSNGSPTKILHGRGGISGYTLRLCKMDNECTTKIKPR
Chain of Human plasma kallikrein (P03952 391-638): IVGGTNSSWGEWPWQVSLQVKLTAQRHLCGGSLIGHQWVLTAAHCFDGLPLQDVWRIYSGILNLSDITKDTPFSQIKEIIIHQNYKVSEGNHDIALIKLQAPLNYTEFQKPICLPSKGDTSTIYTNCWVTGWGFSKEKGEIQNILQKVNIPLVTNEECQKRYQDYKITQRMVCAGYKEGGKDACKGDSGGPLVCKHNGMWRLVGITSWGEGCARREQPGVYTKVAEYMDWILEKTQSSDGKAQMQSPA
Chain of Human plasma kallikrein (P03952 20-390): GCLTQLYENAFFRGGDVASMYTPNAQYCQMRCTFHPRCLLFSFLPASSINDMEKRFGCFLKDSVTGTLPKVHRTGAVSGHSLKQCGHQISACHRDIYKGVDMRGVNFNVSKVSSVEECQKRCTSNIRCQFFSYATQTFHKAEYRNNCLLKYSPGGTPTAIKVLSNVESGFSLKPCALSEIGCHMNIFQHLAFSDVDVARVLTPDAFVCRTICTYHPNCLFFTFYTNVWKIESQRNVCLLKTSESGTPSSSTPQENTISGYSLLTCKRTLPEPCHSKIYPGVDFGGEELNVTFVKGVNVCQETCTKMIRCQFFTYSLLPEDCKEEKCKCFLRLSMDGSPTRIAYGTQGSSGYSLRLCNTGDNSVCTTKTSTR

With `COCc1nn(Cc2ccc(Cn3ccccc3=O)cc2)cc1C(=O)NCc1cc(OC)ncn1` [Example 4, 3-(methoxymethyl)-N-[(6-methoxypyrimidin-4-yl)methyl]-1-({4-[(2-oxopyridin-1-yl)methyl]phenyl}methyl)pyrazole-4-carboxamide], the pIC50 (usually −log10 of the IC50, conventionally taken in molar units) on Human KLK1 is less than 5.40; against Human FXIa, less than 4.40; on Human Factor XIIa, less than 5.40; at Human plasma kallikrein it was 5.64.
In the case of `COCc1nn(Cc2ccc(Cn3ccccc3=O)cc2)cc1C(=O)NCc1cc(OC)ncc1C#N` [Example 8, N-[(5-cyano-2-methoxypyridin-4-yl)methyl]-3-(methoxymethyl)-1-({4-[(2-oxopyridin-1-yl)methyl]phenyl}methyl)pyrazole-4-carboxamide], the pIC50 at Human KLK1 is less than 5.40; on Human FXIa, less than 4.40; at Human Factor XIIa, less than 5.40; on Human plasma kallikrein, 6.79.
`COCc1nn(Cc2ccc(Cn3ccccc3=O)cc2)cc1C(=O)NCc1nn(C)cc1Cl` [Example 34, N-[(4-chloro-1-methylpyrazol-3-yl)methyl]-3-(methoxymethyl)-1-({4-[(2-oxopyridin-1-yl)methyl]phenyl}methyl)pyrazole-4-carboxamide]: the pIC50 at Human KLK1 was less than 4.40; on Human FXIa, less than 4.40; at Human plasma kallikrein it was 6.15.
Regarding `COCc1nn(Cc2ccc(Cn3ccccc3=O)cc2)cc1C(=O)NCc1cc(OC)cc(OC)c1` [Reference Example A, N-(3,5-Dimethoxybenzyl)-3-(methoxymethyl)-1-(4-((2-oxopyridin-1(2H)-yl)methyl)benzyl)-1H-pyrazole-4-carboxamide, reference compound], the pIC50 on Human KLK1 was less than 5.00; on Human FXIa, less than 4.40.
As to `COCc1nn(Cc2cnc3cc(Cl)ccc3c2)cc1C(=O)NCc1cccc(OC)c1F` [Reference Example C, 1-(7-Chloro-quinolin-3-ylmethyl)-3-methoxymethyl-1H-pyrazole-4-carboxylic acid 2-fluoro-3-methoxy-benzylamide, reference compound], the pIC50 was less than 5.00 at Human KLK1 and less than 4.40 against Human FXIa.
Take `COCc1nn(Cc2ccc(Cn3ccccc3=O)cc2)cc1C(=O)NCc1nccc(OC)c1F` [Reference Example D, 3-Methoxymethyl-1-[4-(2-oxo-2H-pyridin-1-ylmethyl)-benzyl]-1H-pyrazole-4-carboxylic acid (3-fluoro-4-methoxy-pyridin-2-ylmethyl)-amide, reference compound]: the pIC50 at Human KLK1, at Human FXIa and at Human Factor XIIa was less than 4.40 in each case.
As for `COCc1nn(Cc2ccc(Cn3ccccc3=O)cc2)cc1C(=O)NCc1c(C#N)ccc(OC)c1F` [Reference Example E, 3-Methoxymethyl-1-[4-(2-oxo-2H-pyridin-1-ylmethyl)-benzyl]-1H-pyrazole-4-carboxylic acid 6-cyano-2-fluoro-3-methoxy-benzylamide, reference compound], the pIC50 against Human FXIa and on Human Factor XIIa was less than 4.40 each time.
The compound `COCc1nn(Cc2ccc(Cn3ccccc3=O)cc2)cc1C(=O)NCc1c(F)ccc(OC)c1C(F)F` [Reference Example F, 3-Methoxymethyl-1-[4-(2-oxo-2H-pyridin-1-ylmethyl)-benzyl]-1H-pyrazole-4-carboxylic acid 2-difluoromethyl-6-fluoro-3-methoxy-benzylamide, reference compound] had a pIC50 at Human FXIa of less than 4.40.
Turning to `COc1cccc(CNC(=O)c2cn(Cc3ccc(N4CCCC4)nc3)nc2C(F)(F)F)c1F` [Reference Example G, 1-(6-Pyrrolidin-1-yl-pyridin-3-ylmethyl)-3-trifluoromethyl-1H-pyrazole-4-carboxylic acid 2-fluoro-3-methoxy-benzylamide, reference compound], the pIC50 at Human KLK1 was less than 5.00; against Human FXIa, less than 4.40.
